Tests used:
Assay in all cases: KINOMEscan competitive binding, whole panel
panel of 203 kinases [1] = target: T1, panel of 203 kinases (Homo sapiens, UniProt P07333); conditions: 10 µM, n=1; kinase CSF1R; read-out: Percent inhibition CSF1R
T1 construct: purchased DiscoverX (KINOMEscan)
In short: (§1)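 Kinases expressed as T7 bacteriophage fusions; test compound competes with an immobilized ATP-site probe ligand. Kinase still bound to the solid support was quantified and expressed as percentage inhibition.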

panel of 203 kinases [2] = target: T2, panel of 203 kinases (Homo sapiens, UniProt Q9Y2H1); conditions: 10 µM, n=1; kinase NDR2; read-out: Percent inhibition NDR2
T2 construct: purchased DiscoverX (KINOMEscan)
In short: as §1

panel of 203 kinases [3] = target: T3, panel of 203 kinases (Homo sapiens, UniProt P51451); conditions: 10 µM, n=1; kinase BLK; read-out: Percent inhibition BLK
T3 construct: purchased DiscoverX (KINOMEscan)
In short: as §1

panel of 203 kinases [4] = target: T4, panel of 203 kinases (Homo sapiens, UniProt P29320); conditions: 10 µM, n=1; kinase EPHA3; read-out: Percent inhibition EPHA3
T4 construct: purchased DiscoverX (KINOMEscan)
T4 sequence (P29320 21-983): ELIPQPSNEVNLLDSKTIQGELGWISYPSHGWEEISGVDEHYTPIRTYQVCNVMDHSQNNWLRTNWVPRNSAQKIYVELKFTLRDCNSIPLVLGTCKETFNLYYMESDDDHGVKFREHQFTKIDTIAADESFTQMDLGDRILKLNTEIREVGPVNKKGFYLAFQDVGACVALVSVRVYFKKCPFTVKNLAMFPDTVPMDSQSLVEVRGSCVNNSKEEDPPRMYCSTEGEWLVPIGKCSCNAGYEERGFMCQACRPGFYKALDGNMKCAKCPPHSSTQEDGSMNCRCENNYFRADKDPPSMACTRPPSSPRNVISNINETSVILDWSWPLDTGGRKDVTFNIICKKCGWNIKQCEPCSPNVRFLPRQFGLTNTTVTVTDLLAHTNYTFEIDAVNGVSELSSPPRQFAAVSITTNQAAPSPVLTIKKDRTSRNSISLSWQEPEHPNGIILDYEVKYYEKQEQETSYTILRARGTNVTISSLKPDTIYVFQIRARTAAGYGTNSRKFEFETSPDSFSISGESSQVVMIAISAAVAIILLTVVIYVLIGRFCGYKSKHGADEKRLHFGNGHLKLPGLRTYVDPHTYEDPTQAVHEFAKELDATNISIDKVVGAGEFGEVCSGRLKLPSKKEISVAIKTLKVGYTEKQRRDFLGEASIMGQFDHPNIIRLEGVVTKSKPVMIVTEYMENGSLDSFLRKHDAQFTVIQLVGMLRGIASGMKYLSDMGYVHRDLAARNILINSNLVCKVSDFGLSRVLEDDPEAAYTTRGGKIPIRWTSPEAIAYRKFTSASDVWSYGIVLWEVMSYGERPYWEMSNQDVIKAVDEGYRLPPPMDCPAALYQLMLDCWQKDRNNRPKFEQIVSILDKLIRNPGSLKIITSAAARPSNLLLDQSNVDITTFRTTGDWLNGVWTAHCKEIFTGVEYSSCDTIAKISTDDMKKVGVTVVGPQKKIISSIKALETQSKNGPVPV
In short: as §1

panel of 203 kinases [5] = target: T5, panel of 203 kinases (Homo sapiens, UniProt P54756); conditions: 10 µM, n=1; kinase EPHA5; read-out: Percent inhibition EPHA5
T5 construct: purchased DiscoverX (KINOMEscan)
In short: as §1

panel of 203 kinases [6] = target: T6, panel of 203 kinases (Homo sapiens, UniProt Q96NX5); conditions: 10 µM, n=1; kinase CAMK1G; read-out: Percent inhibition CAMK1G
T6 construct: purchased DiscoverX (KINOMEscan)
In short: as §1

panel of 203 kinases [7] = target: T7, panel of 203 kinases (Homo sapiens, UniProt Q9Y4K4); conditions: 10 µM, n=1; kinase MAP4K5; read-out: Percent inhibition MAP4K5
T7 construct: purchased DiscoverX (KINOMEscan)
In short: as §1

panel of 203 kinases [8] = target: T8, panel of 203 kinases (Homo sapiens, UniProt Q04771); conditions: 10 µM, n=1; kinase ACVR1; read-out: Percent inhibition ACVR1
T8 construct: purchased DiscoverX (KINOMEscan)
T8 sequence (Q04771 21-509): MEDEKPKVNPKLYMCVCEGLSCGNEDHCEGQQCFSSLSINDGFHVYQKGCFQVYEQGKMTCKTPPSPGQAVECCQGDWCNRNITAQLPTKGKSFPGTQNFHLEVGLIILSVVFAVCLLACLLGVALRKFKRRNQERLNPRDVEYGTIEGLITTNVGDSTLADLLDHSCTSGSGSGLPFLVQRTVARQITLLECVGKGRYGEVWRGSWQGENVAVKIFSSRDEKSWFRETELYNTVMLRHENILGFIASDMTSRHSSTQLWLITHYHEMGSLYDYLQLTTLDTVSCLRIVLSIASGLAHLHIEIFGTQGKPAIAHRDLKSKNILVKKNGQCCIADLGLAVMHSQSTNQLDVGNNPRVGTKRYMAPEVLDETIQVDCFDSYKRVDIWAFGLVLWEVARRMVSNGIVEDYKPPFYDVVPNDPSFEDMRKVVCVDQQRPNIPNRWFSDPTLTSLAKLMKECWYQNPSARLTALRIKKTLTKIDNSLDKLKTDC
In short: as §1

panel of 203 kinases [9] = target: T9, panel of 203 kinases (Homo sapiens, UniProt Q9P0L2); conditions: 10 µM, n=1; kinase MARK1; read-out: Percent inhibition MARK1
T9 construct: purchased DiscoverX (KINOMEscan)
In short: as §1

panel of 203 kinases [10] = target: T10, panel of 203 kinases (Homo sapiens, UniProt Q13555); conditions: 10 µM, n=1; kinase CAMK2G; read-out: Percent inhibition CAMK2G
T10 construct: purchased DiscoverX (KINOMEscan)
In short: as §1

panel of 203 kinases [11] = target: T11, panel of 203 kinases (Homo sapiens, UniProt Q5VT25); conditions: 10 µM, n=1; kinase MRCKA; read-out: Percent inhibition MRCKA
T11 construct: purchased DiscoverX (KINOMEscan)
In short: as §1

panel of 203 kinases [12] = target: T12, panel of 203 kinases (Homo sapiens, UniProt Q9UQM7); conditions: 10 µM, n=1; kinase CAMK2A; read-out: Percent inhibition CAMK2A
T12 construct: purchased DiscoverX (KINOMEscan)
In short: as §1

panel of 203 kinases [13] = target: T13, panel of 203 kinases (Homo sapiens, UniProt Q8IU85); conditions: 10 µM, n=1; kinase CAMK1D; read-out: Percent inhibition CAMK1D
T13 construct: purchased DiscoverX (KINOMEscan)
In short: as §1

panel of 203 kinases [14] = target: T14, panel of 203 kinases (Homo sapiens, UniProt P19784); conditions: 10 µM, n=1; kinase CSNK2A2; read-out: Percent inhibition CSNK2A2
T14 construct: purchased DiscoverX (KINOMEscan)
In short: as §1

panel of 203 kinases [15] = target: T15, panel of 203 kinases (Homo sapiens, UniProt P00519); conditions: 10 µM, n=1; kinase ABL1; read-out: Percent inhibition ABL1
T15 construct: purchased DiscoverX (KINOMEscan)
In short: as §1

| SMILES | inhibition at 10 µM (panel of 203 kinases [1]) [%] | inhibition at 10 µM (panel of 203 kinases [2]) [%] | inhibition at 10 µM (panel of 203 kinases [3]) [%] | inhibition at 10 µM (panel of 203 kinases [4]) [%] | inhibition at 10 µM (panel of 203 kinases [5]) [%] | inhibition at 10 µM (panel of 203 kinases [6]) [%] | inhibition at 10 µM (panel of 203 kinases [7]) [%] | inhibition at 10 µM (panel of 203 kinases [8]) [%] | inhibition at 10 µM (panel of 203 kinases [9]) [%] | inhibition at 10 µM (panel of 203 kinases [10]) [%] | inhibition at 10 µM (panel of 203 kinases [11]) [%] | inhibition at 10 µM (panel of 203 kinases [12]) [%] | inhibition at 10 µM (panel of 203 kinases [13]) [%] | inhibition at 10 µM (panel of 203 kinases [14]) [%] | inhibition at 10 µM (panel of 203 kinases [15]) [%] |
| --- | --- | --- | --- | --- | --- | --- | --- | --- | --- | --- | --- | --- | --- | --- | --- |
| COc1cc(Nc2nccc(-c3sc(N)nc3-c3cccc(NC(=O)c4c(F)cccc4F)c3)n2)cc(OC)c1OC [Compound 7] | 100 | 100 | 99 | 99.7 | 100 | 69.4 | 99.9 | 0 | 79 | 0 | 100 | 0 | 91.8 | 0 | 99.7 |
| C[C@@H](Oc1cc(-c2cnc3ccccn23)sc1C(N)=O)c1ccccc1Cl [Compound 8] | 0 | 0 | 0 | 0 | 0 | 0 | 82.7 | 0 | 0 | 0 | 0 | 66.5 | 0 | 95.2 | 0 |
| c1ccc(COc2cccc(-c3ccnc4[nH]ccc34)c2)cc1 [Compound 9] | 0 | 0 | 0 | 0 | 0 | 0 | 0 | 0 | 0 | 0 | 0 | 0 | 0 | 0 | 0 |
| Clc1ccc(Nc2ncc(-c3ccccc3)s2)cc1 [Compound 10] | 0 | 0 | 0 | 0 | 0 | 0 | 0 | 0 | 0 | 0 | 0 | 0 | 0 | 0 | 0 |
| Nc1ncc2c(-c3ccncc3)c[nH]c2n1 [Compound 11] | 0 | 0 | 0 | 94.6 | 0 | 0 | 0 | 66.2 | 0 | 0 | 0 | 77.6 | 0 | 0 | 0 |

— PMC9927415, “Tyrosine Kinase Inhibitors Display Potent Activity against Cryptosporidium parvum” (Microbiology Spectrum, 2022)
